Source: paper PMC3933693, “Novel Inhibitors of Mitochondrial sn-Glycerol 3-phosphate Dehydrogenase” (PLoS ONE, 2014)

Experiments:
[1] = biological target: T1, outer ubiquinone-binding site of complex III (site IIIQo) (Rattus norvegicus, UniProt P00159+P20788); test: Site-specific H2O2 production from site IIIQo in skeletal muscle mitochondria; type: biochemical; settings: primary screen, ∼2.5 µM, average of duplicates; 5 mM succinate
T1 construct: from tissue; host or cells: skeletal muscle mitochondria
Method: (§1) Superoxide was measured as H2O2 after dismutation by endogenous or exogenous superoxide dismutase. Rates of total superoxide/H2O2 production were measured fluorimetrically using Amplex UltraRed in the presence of exogenous superoxide dismutase and horseradish peroxidase in a Varian Cary Eclipse fluorimeter as previously described. Rates of production from specific sites were determined as previously described using the following eight conditions: flavin mononucleotide site of complex I (site IF) plus matrix NAD-linked dehydrogenases (collectively "site IF/DH") with 5 mM glutamate, 5 mM malate, and 4 µM rotenone; ubiquinone-binding site of complex I (site IQ) with either 0.5 or 5 mM succinate; flavin site of complex II (site IIF) with either 15 µM palmitoylcarnitine, 2.5 µM antimycin A, and 2 µM myxothiazol or 0.5 mM succinate, 4 µM rotenone, 2.5 µM antimycin A, and 2 µM myxothiazol, [31]; mGPDH with 1.7 mM glycerol phosphate, 4 µM rotenone, 2.5 µM antimycin A, 2 µM myxothiazol, 1 mM malonate, and 250 nM free calcium; outer ubiquinone-binding site of complex III (site IIIQo) with either 0.5 or 5 mM succinate, 4 µM rotenone and 2.5 µM antimycin A [32]. Candidate small-molecule inhibitors were added prior to the start of measurements and H2O2 calibration curves were performed in the presence of tested compounds.
(§2) 3,200 compounds were tested initially at 2.5 µM (0.025% DMSO final) in duplicate on different plates against a panel of five distinct assays of site-specific superoxide/H2O2 production as described in the previous section with minor changes. […] Endpoint fluorescence was measured on a Perkin Elmer Victor V3 fluorescent plate reader. The fluorescence intensity of each well was normalized as % change from the average of eight DMSO controls on the same plate. Duplicate wells of each of four modulators of mitochondrial metabolism known to inhibit specific sites of superoxide/H2O2 production were included on each plate as positive controls and the resulting fluorescence levels set as −100% change from DMSO controls. Known inhibitors included 20 mM aspartate (for site IF/DH), 1 µM FCCP (for site IQ), 10 mM malonate (for site IIF), and 2 µM myxothiazol (for site IIIQo). The background fluorescence of the FCCP wells in the site IQ assay was used to normalize mGPDH plates run in parallel. To minimize position-dependent effects across each assay plate, Tukey’s two-way median polish was applied to fluorescence values after initial normalization, [36]. Tukey’s polish is an iterative subtraction of the median row and column values from each well’s given row or column. The procedure is repeated until sequential medians for each row and column are zero and positional gradients in fluorescence are eliminated.

[2] = biological target: T2, flavin site of complex II (site IIF) (Rattus norvegicus, UniProt Q920L2); test: Site-specific H2O2 production from site IIF in skeletal muscle mitochondria; type: biochemical; settings: primary screen, ∼2.5 µM, average of duplicates; palmitoylcarnitine
T2 construct: from tissue; host or cells: skeletal muscle mitochondria
Method: as §1, §2

[3] = tested on: skeletal muscle mitochondria; test: Mitochondrial membrane potential (ΔΨm, TMRM) powered by glutamate plus malate; type: biochemical, rat; settings: for ΔΨm (% change from DMSO): primary screen, ∼2.5 µM, average of duplicates, glutamate and malate; for ΔΨm with Glu + Mal + Nig (% change at 80 μM) / ΔΨm with Glu + Mal (% change at 80 μM): 5 mM glutamate, 5 mM malate; for ΔΨm with Glu + Mal + Nig (% change at 80 μM): with nigericin; for ΔΨm with Glu + Mal (% change at 80 μM): without nigericin
[4] = tested on: flavin mononucleotide site of complex I (site IF) plus matrix NAD-linked dehydrogenases (site IF/DH); test: Site-specific H2O2 production from site IF/DH in skeletal muscle mitochondria; type: biochemical, rat; settings: primary screen, ∼2.5 µM, average of duplicates
Method: as §1, §2

[5] = tested on: ubiquinone-binding site of complex I (site IQ); test: Site-specific H2O2 production from site IQ in skeletal muscle mitochondria; type: biochemical, rat; settings: 5 mM succinate; for IQ (% change from DMSO): primary screen, ∼2.5 µM, average of duplicates;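 on all read-outs here: H2O2 from superoxide detected by Amplex UltraRed fluorescence with added superoxide dismutase and horseradish peroxidase, endpoint read 30–40 min after substrate addition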
[6] = biological target: T3, mGPDH (Rattus norvegicus, UniProt P35571); test: Superoxide/H2O2 production by mGPDH in isolated skeletal muscle mitochondria (Amplex UltraRed); type: biochemical; settings: for mGPDH (% change from DMSO): primary screen, ∼2.5 µM, average of duplicates, 16.7 mM glycerol phosphate, no added calcium; for IC50: Fig. 4 structure/activity microplate assay, 0.08–80 µM, estimated, means of two replicates, read-out: mGPDH H2O2 production IC50; for inhibition at 80 µM: read-out: mGPDH H2O2 production (% change at 80 μM)
T3 construct: Activity of mGPDH in frozen-thawed skeletal muscle mitochondria was measured; from tissue; host or cells: skeletal muscle mitochondria
T3 sequence (P35571 43-727): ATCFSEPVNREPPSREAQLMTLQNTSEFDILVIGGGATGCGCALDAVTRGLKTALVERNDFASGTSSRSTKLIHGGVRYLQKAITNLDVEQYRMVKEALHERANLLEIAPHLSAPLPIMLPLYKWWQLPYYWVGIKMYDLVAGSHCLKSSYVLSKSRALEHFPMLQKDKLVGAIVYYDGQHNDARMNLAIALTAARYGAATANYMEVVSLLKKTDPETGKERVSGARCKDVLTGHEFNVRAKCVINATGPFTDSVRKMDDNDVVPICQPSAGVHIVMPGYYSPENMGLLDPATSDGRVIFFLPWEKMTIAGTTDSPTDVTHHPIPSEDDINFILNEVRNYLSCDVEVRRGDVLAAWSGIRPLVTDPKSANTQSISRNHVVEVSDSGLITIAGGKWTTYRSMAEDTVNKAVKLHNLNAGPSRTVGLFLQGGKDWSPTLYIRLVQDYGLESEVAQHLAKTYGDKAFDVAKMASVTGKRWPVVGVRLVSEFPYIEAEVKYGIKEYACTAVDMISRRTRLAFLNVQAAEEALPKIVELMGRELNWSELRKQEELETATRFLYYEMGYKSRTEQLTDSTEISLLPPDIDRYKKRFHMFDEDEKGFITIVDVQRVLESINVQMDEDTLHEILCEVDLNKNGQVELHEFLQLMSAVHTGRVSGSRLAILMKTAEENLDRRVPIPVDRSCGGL

[7] = tested on: skeletal muscle mitochondria; test: Mitochondrial membrane potential (ΔΨm, TMRM) powered by glycerol phosphate; type: biochemical, rat; settings: 80 μM; 16.7 mM glycerol phosphate, 4 µM rotenone, nigericin

T2 sequence (Q920L2 35-656): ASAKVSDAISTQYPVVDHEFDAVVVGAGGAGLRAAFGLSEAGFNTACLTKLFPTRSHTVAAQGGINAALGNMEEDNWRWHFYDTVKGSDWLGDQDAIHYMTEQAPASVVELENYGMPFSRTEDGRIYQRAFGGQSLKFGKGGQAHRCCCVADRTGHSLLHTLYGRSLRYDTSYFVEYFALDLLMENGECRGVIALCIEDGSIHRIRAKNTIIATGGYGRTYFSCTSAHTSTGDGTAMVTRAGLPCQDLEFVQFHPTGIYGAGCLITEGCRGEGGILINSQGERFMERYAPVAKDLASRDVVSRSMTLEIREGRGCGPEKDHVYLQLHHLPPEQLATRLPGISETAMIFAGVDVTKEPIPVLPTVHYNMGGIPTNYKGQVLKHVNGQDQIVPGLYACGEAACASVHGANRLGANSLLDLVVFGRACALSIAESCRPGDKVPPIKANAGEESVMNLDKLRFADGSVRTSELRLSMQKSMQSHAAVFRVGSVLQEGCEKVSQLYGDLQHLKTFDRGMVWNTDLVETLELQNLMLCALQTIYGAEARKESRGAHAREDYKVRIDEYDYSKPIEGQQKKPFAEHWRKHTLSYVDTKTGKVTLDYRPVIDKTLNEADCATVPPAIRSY
T2 sequence (P21913 31-282 partner): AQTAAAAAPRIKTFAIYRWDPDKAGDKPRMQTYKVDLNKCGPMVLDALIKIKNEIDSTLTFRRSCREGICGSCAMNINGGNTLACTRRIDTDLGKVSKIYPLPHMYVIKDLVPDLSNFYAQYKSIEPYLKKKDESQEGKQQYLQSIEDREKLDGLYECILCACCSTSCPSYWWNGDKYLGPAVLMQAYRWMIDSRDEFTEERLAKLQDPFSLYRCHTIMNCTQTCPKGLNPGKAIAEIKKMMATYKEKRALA
T2 sequence (Q641Z9 30-169 partner limits assumed): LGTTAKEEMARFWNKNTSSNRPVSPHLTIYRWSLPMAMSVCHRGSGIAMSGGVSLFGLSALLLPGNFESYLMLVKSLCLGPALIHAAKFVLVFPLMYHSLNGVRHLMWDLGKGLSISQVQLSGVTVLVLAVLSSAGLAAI
T2 sequence (Q6PCT8 57-159 partner): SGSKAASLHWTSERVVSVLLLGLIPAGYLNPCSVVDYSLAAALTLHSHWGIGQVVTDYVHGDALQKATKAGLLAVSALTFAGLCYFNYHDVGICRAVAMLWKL

IIIQo (% change from DMSO) [1] [%] | IIF (% change from DMSO) [2] [%] | mGPDH (% change from DMSO) [6] [%] | IC50 [6] [µM] | inhibition at 80 µM [6] [%] | Structure (SMILES) | ΔΨm (% change from DMSO) [3] [%] | IF/DH (% change from DMSO) [4] [%] | IQ (% change from DMSO) [5] [%] | ΔΨm with GP + Nig (% change at 80 μM) [7] [%] | ΔΨm with Glu + Mal + Nig (% change at 80 μM) [3] [%] | ΔΨm with Glu + Mal (% change at 80 μM) [3] [%] | IQ H2O2 production with 5 mM Suc (% change at 80 μM) [5] [%]
-15.9 | -0.354 | -12.4 |  |  | Cc1ccc(S(=O)(=O)CCC#N)cc1C [compound 5210670] | -0.074 | -4.6 | 0.4 |  |  |  | 
-50.4 | -53.2 | -21.9 |  |  | Cc1ccc(S(=O)(=O)c2cc(O)ccc2O)cc1C [compound 5210729] | -0.6 | -32.6 | -40.9 |  |  |  | 
-0.0236 | 1.3 | -14.1 |  |  | O=C(O)CSc1cccc(C(=O)Nc2ccc(Br)cc2)c1 [compound 5210767] | -0.00715 | -0.5 | -0.0908 |  |  |  | 
-6.4 | -26.9 | -14.1 |  |  | CC(=O)c1c(C)n(-c2ccccc2)c2ccc(O)cc12 [compound 5215317] | 0.144 | -34.7 | -13.7 |  |  |  | 
-8.8 | -44.3 | -29.8 |  |  | COc1ccc(C(=O)Nc2ccc(S(=O)(=O)Nc3nc(C)cc(C)n3)cc2)c(OC)c1 [compound 5219504] | 1.4 | -30.7 | -19.3 |  |  |  | 
-20.2 | -32.9 | -22.7 |  |  | CC1(C)CC(=O)C2=C(C1)Nc1cc(Cl)ccc1S2 [compound 5219661] | -1.8 | -91.8 | -52.0 |  |  |  | 
-23.3 | -49.0 | -23.3 |  |  | Cc1nc2ccc(Cl)cc2c2c(N)c3ccccc3n12 [compound 5219795] | 0.6 | -30.5 | -14.8 |  |  |  | 
-36.6 | -51.0 | -31.6 |  |  | CC1=Nc2c([nH]c3ccccc23)-c2cc(C)ccc2N1.Cl [compound 5219818] | -0.5 | -40.2 | -50.1 |  |  |  | 
-13.3 | -0.9 | -10.0 |  |  | CCCCSc1nnc2c(n1)[nH]c1ccc(C)cc12 [compound 5225633] | 1.1 | 16.4 | -2.4 |  |  |  | 
-11.7 | -4.3 | -10.7 |  |  | CCC1CCCCN1C/C=C/c1ccc(N(C)C)cc1 (centres unmarked) [compound 5429735] | 0.3 | -23.1 | -0.0537 |  |  |  | 
-33.8 | -24.5 | -29.7 |  |  | COc1ccc(CNc2cccc(N(C)C)c2)cc1 [compound 5452512] | 0.0119 | -33.7 | -34.0 |  |  |  | 
-14.3 | -25.6 | -20.6 |  |  | COc1ccc(NCC2CCCCC2)cc1 [compound 5454631] | -0.00487 | -52.2 | -40.9 |  |  |  | 
-17.4 | -27.6 | -20.2 |  |  | c1coc(CNc2ccc3c(c2)OCO3)c1 [compound 5457094] | 0.527 | -27.2 | -27.2 |  |  |  | 
-8.4 | -28.0 | -26.4 |  |  | O=C(Nc1ccc(O)cc1)c1ccco1 [compound 5471987] | 0.0125 | -52.3 | -9.9 |  |  |  | 
-4.7 | -11.9 | -12.9 |  |  | Cn1c(/C=C/c2ccc(Cl)cc2)nc2ccccc21 [compound 5663561] | 0.0494 | -9.1 | -3.9 |  |  |  | 
-4.6 | -7.3 | -10.3 |  |  | Nc1nc(-c2ccc(Cl)c(Cl)c2)cs1 [compound 5690819] | 0.636 | -0.9 | -3.1 |  |  |  | 
 |  |  | 15 | 50 | O=C(O)CCC(=O)Nc1ccc(-c2nc3ccccc3s2)cc1 [iGP-3] |  |  |  | -26 | 20 | 148 | -69
 |  |  | 5 | 69 | Cc1ccc2[nH]c(-c3ccc(NC(=O)CCC(=O)O)cc3)nc2c1 [iGP-4] |  |  |  | -35 | 11 | 49 | -20
 |  |  | 3 | 55 | O=C(O)CCC(=O)Nc1ccc(-c2nc3cc(C(=O)c4ccccc4)ccc3[nH]2)cc1 [iGP-6] |  |  |  | -59 | 17 | 93 | -28
 |  |  |  | 21 | O=C(O)CCC(=O)Nc1ccc(-c2nc3cc(NC(=O)CCC(=O)O)ccc3[nH]2)cc1 [iGP-7] |  |  |  | 4 | 2 | 25 | 3
